Measured values published in ChEMBL document CHEMBL1201862, “PubChem BioAssay data set” (2004).
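Growth conditions: 96-well plates. Treatment: test compound, 48 hours, 5 concentrations. Analysis: linear interpolation between bracketing concentrations; unreached endpoints set to highest concentration. GI50 is the concentration that inhibits growth by half.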 Active and inactive are the calls of the source. Rule as the data show it: active = GI50 up to about 1.1 µM and inactive = higher.

Legend:
Assay in all cases: NCI tumour cell line growth inhibition, 48 h
Malme-3M = test system: Malme-3M
ACHN = test system: ACHN
M14 = test system: M14
NCI-H226 = test system: NCI-H226
IGROV-1 = test system: IGROV-1
MDA-N = test system: MDA-N
MDA-MB-231 = test system: MDA-MB-231
MDA-MB-435 = test system: MDA-MB-435
LOX IMVI = test system: LOX IMVI
DU-145 = test system: DU-145
RPMI-8226 = test system: RPMI-8226
CAKI-1 = test system: CAKI-1
MCF7 = test system: MCF7
HCT-116 = test system: HCT-116
OVCAR-3 = test system: OVCAR-3
HCC 2998 = test system: HCC 2998
UO-31 = test system: UO-31
NCI-H522 = test system: NCI-H522
U-251 = test system: U-251
KM12 = test system: KM12

Measured: GI50

NCCNc1nc(N2CCCC2)c2nc(Cl)c(NCc3ccccc3)nc2n1
inactive: Malme-3M 2.07 µM | ACHN 1.95 µM | M14 1.67 µM | NCI-H226 3.15 µM | IGROV-1 1.66 µM | MDA-N 1.67 µM | MDA-MB-231 1.33 µM | MDA-MB-435 1.69 µM | LOX IMVI 1.56 µM | DU-145 1.61 µM | RPMI-8226 1.88 µM | CAKI-1 5.27 µM | MCF7 1.73 µM | HCT-116 1.49 µM | OVCAR-3 1.68 µM | HCC 2998 1.51 µM | UO-31 1.73 µM | NCI-H522 1.67 µM | U-251 1.63 µM | KM12 1.71 µM

c1cnc(N2CCN(Cc3c[nH]c4ccccc34)CC2)nc1
inactive: Malme-3M 43.4 µM | ACHN 27.8 µM | M14 45.4 µM | NCI-H226 58.7 µM | IGROV-1 > 100 µM | MDA-N 25.1 µM | MDA-MB-231 37.2 µM | MDA-MB-435 31 µM | LOX IMVI 45.8 µM | DU-145 23.9 µM | RPMI-8226 11.7 µM | CAKI-1 28.2 µM | MCF7 16.9 µM | HCT-116 26.2 µM | OVCAR-3 52.2 µM | HCC 2998 18.6 µM | UO-31 38.5 µM | NCI-H522 > 100 µM | U-251 37.1 µM | KM12 20.4 µM

CC(CCC(=O)O)(c1cc(Br)c(O)c(Br)c1)c1cc(Br)c(O)c(Br)c1
inactive: Malme-3M 58.9 µM | ACHN 87.1 µM | M14 33.3 µM | NCI-H226 31.3 µM | IGROV-1 88.3 µM | MDA-N 70 µM | MDA-MB-231 94.8 µM | MDA-MB-435 65.8 µM | LOX IMVI 45.5 µM | DU-145 70.3 µM | RPMI-8226 48.8 µM | CAKI-1 > 100 µM | MCF7 70.6 µM | HCT-116 50.4 µM | OVCAR-3 60.3 µM | HCC 2998 30.1 µM | UO-31 66.7 µM | NCI-H522 39.6 µM | U-251 48.9 µM | KM12 45.1 µM

Cn1c2ccccc2c2ccc3c(c21)C(=O)C=CC3=O
inactive: Malme-3M 3.39 µM | ACHN 3.52 µM | M14 8.65 µM | NCI-H226 20.5 µM | IGROV-1 15.4 µM | MDA-N 6.82 µM | MDA-MB-231 6.73 µM | MDA-MB-435 5.11 µM | LOX IMVI 4.18 µM | DU-145 16 µM | RPMI-8226 2.32 µM | CAKI-1 4.33 µM | MCF7 3.3 µM | HCT-116 4.29 µM | OVCAR-3 7.24 µM | HCC 2998 10.3 µM | UO-31 6.93 µM | NCI-H522 2.96 µM | U-251 11.4 µM | KM12 22.9 µM

CC(C(=O)[O-])S(=O)(=O)O.CCc1c2cc(OC)c(OC)cc2cc2c3cc(OC)c(OC)cc3cc[n+]12
inactive: Malme-3M 8.79 µM | ACHN 58.9 µM | M14 51.1 µM | NCI-H226 9.73 µM | IGROV-1 41.5 µM | MDA-N 9.89 µM | MDA-MB-231 20.1 µM | MDA-MB-435 4.27 µM | LOX IMVI 27.5 µM | DU-145 14.2 µM | RPMI-8226 25.8 µM | CAKI-1 60.4 µM | MCF7 9.89 µM | HCT-116 17.8 µM | OVCAR-3 12.4 µM | HCC 2998 15 µM | UO-31 53.7 µM | NCI-H522 3.09 µM | U-251 6.27 µM | KM12 17.8 µM

CN1CCN(c2ccc3nc(C4=C(O)C(=O)c5c(nc(CCl)n5C)C4=O)[nH]c3n2)CC1
inactive: Malme-3M 3.66 µM | ACHN 10.3 µM | M14 9.4 µM | NCI-H226 14.7 µM | IGROV-1 8.38 µM | MDA-N 9.75 µM | MDA-MB-231 10.9 µM | MDA-MB-435 9.86 µM | LOX IMVI 8.15 µM | DU-145 10.1 µM | RPMI-8226 26 µM | CAKI-1 13.5 µM | MCF7 8.89 µM | HCT-116 8.85 µM | OVCAR-3 10.4 µM | HCC 2998 5.89 µM | UO-31 2.47 µM | NCI-H522 1.56 µM | U-251 8.77 µM | KM12 9.71 µM

COc1ccc(/N=N/c2c(-c3c(OC)cc4occc4c3OC)[nH]c(=O)c(C#N)c2C)cc1
inactive: Malme-3M 55 µM | ACHN > 100 µM | M14 > 100 µM | NCI-H226 > 100 µM | IGROV-1 76.2 µM | MDA-N > 100 µM | MDA-MB-231 > 100 µM | MDA-MB-435 > 100 µM | LOX IMVI > 100 µM | DU-145 > 100 µM | RPMI-8226 > 100 µM | CAKI-1 > 100 µM | MCF7 > 100 µM | HCT-116 > 100 µM | OVCAR-3 > 100 µM | HCC 2998 > 100 µM | UO-31 > 100 µM | NCI-H522 > 100 µM | U-251 > 100 µM | KM12 > 100 µM

COc1cccc2c(Nc3ccc(S(=O)(=O)N=C(N)N)cc3)c3ccc([N+](=O)[O-])cc3nc12
inactive: Malme-3M 10.7 µM | ACHN 10.2 µM | M14 16.3 µM | NCI-H226 38.8 µM | IGROV-1 8.2 µM | MDA-N 17.6 µM | MDA-MB-231 2.34 µM | MDA-MB-435 23.6 µM | LOX IMVI 11.4 µM | DU-145 8.67 µM | RPMI-8226 8.05 µM | CAKI-1 5.57 µM | MCF7 4.09 µM | HCT-116 16.6 µM | OVCAR-3 20.4 µM | HCC 2998 3.23 µM | UO-31 16.3 µM | NCI-H522 6.71 µM | U-251 5.61 µM | KM12 3.99 µM

Cc1ccc(N2C(=O)CC(=O)N(NC(=O)C(C)Oc3ccccc3C)C2=S)cc1 (stereo not given)
inactive: Malme-3M > 100 µM | ACHN > 100 µM | M14 > 100 µM | NCI-H226 > 100 µM | IGROV-1 > 100 µM | MDA-N 94.8 µM | MDA-MB-231 > 100 µM | MDA-MB-435 > 100 µM | LOX IMVI 70.6 µM | DU-145 > 100 µM | RPMI-8226 > 100 µM | CAKI-1 > 100 µM | MCF7 > 100 µM | HCT-116 > 100 µM | OVCAR-3 > 100 µM | HCC 2998 > 100 µM | UO-31 > 100 µM | NCI-H522 > 100 µM | U-251 > 100 µM | KM12 > 100 µM

COc1ccc2c(c1)-c1c(c3ccccc3n1CCN1CCCCC1)CC2
inactive: Malme-3M 23.4 µM | ACHN 33.7 µM | M14 5.47 µM | NCI-H226 17.2 µM | IGROV-1 13.8 µM | MDA-N 23.7 µM | MDA-MB-231 14.3 µM | MDA-MB-435 24.9 µM | LOX IMVI 16.3 µM | DU-145 53.8 µM | RPMI-8226 11.3 µM | CAKI-1 21.6 µM | MCF7 7.24 µM | HCT-116 13.1 µM | OVCAR-3 6.08 µM | HCC 2998 6.87 µM | UO-31 12.6 µM | NCI-H522 14.6 µM | U-251 19.5 µM | KM12 6.07 µM

CC1=C(C(=O)OCCO[N+](=O)[O-])C(c2ccccc2[N+](=O)[O-])C(C(=O)OC(C)C)=C(C)N1 (stereo not given)
inactive: Malme-3M 17.3 µM | ACHN 13.1 µM | M14 15.8 µM | NCI-H226 14 µM | IGROV-1 15.6 µM | MDA-N 17.2 µM | MDA-MB-231 15.6 µM | MDA-MB-435 15 µM | LOX IMVI 17.7 µM | DU-145 20.7 µM | RPMI-8226 84.9 µM | CAKI-1 17 µM | MCF7 19.9 µM | HCT-116 15.4 µM | OVCAR-3 13 µM | HCC 2998 16 µM | UO-31 13.2 µM | NCI-H522 16 µM | U-251 16.2 µM | KM12 13.8 µM

O=c1c2c3c(sc2nc2n1N=CN(c1ccc(Cl)cc1)C2)CCCC3
inactive: Malme-3M 16.2 µM | ACHN 75 µM | M14 > 100 µM | NCI-H226 42.3 µM | IGROV-1 > 100 µM | MDA-N 56.6 µM | MDA-MB-231 16.7 µM | MDA-MB-435 > 100 µM | LOX IMVI 36.3 µM | DU-145 21.3 µM | RPMI-8226 46.8 µM | CAKI-1 23.8 µM | MCF7 > 100 µM | HCT-116 26.9 µM | OVCAR-3 19.4 µM | HCC 2998 2.26 µM | UO-31 > 100 µM | NCI-H522 10.5 µM | U-251 54.1 µM | KM12 > 100 µM

Cc1ccc(C(=O)c2[nH]c(Nc3ccc(Cl)cc3)c(C(=S)Nc3ccccc3)c2N)cc1
inactive: Malme-3M 4.17 µM | ACHN 3.27 µM | M14 12.9 µM | NCI-H226 14 µM | IGROV-1 4.41 µM | MDA-N 6.73 µM | MDA-MB-231 10.1 µM | MDA-MB-435 6.68 µM | LOX IMVI 3.91 µM | DU-145 8.05 µM | RPMI-8226 5.05 µM | CAKI-1 8.67 µM | MCF7 12.5 µM | HCT-116 3.72 µM | OVCAR-3 11.3 µM | HCC 2998 2.29 µM | UO-31 9.14 µM | NCI-H522 9.68 µM | U-251 3.01 µM | KM12 5.26 µM

CC(C)OC(=O)c1ccc(CCC2=CC(=O)C=CC2=O)cc1
inactive: Malme-3M 6.92 µM | ACHN 7.89 µM | M14 15.2 µM | NCI-H226 15.9 µM | IGROV-1 13.9 µM | MDA-N 10.4 µM | MDA-MB-231 8.93 µM | MDA-MB-435 17.4 µM | LOX IMVI 4.1 µM | DU-145 15.2 µM | RPMI-8226 2.79 µM | CAKI-1 1.98 µM | MCF7 15.5 µM | HCT-116 11.8 µM | OVCAR-3 5.18 µM | HCC 2998 16.8 µM | UO-31 4.5 µM | NCI-H522 1.9 µM | U-251 15.6 µM | KM12 12.2 µM
